Source: PMC11721616, “Evaluation of N-alkyl isatins and indoles as acetylcholinesterase and butyrylcholinesterase inhibitors” (Journal of Enzyme Inhibition and Medicinal Chemistry, 2023)
Values joined by “and” are separate entries in the source; they are usually repeats but may differ in a detail not shown here. Equal entries are not always repeated. Where two headings read alike, the source gives them in different places.

What was measured:
BChE [1] = settings: previously reported by Hyatt et al.; cited from earlier work
AChE [2] = settings: previously reported by Hyatt et al.; cited from earlier work
BChE [3] = target: T1, BChE (Equus caballus, UniProt P81908); assay: biochemical; type: biochemical; settings: for Selectivity: calculated as AChE IC50/BChE IC50
T1 construct: BChE (Lee Biosolutions, Product No. 130–10-1, from equine serum); purchased Lee Biosolutions 130–10-1; host or cells: equine serum
T1 sequence (P81908 whole entry): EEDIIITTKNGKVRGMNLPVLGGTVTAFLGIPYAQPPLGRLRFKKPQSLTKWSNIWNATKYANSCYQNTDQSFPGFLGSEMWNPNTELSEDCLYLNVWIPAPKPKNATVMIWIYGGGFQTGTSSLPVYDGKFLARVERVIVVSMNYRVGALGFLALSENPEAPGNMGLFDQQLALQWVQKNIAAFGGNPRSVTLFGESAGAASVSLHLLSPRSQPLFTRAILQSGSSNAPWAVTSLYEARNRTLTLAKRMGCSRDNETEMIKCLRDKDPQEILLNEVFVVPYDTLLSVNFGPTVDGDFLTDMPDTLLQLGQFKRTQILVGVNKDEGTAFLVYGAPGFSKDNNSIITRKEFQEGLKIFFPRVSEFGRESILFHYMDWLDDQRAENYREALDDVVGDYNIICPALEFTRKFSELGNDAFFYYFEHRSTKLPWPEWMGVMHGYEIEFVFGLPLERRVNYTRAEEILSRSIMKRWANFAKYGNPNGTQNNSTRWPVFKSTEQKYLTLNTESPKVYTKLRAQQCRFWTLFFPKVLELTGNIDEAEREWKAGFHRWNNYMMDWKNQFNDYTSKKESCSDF
Procedure: (§1) Inhibition of AChE (Sigma-Aldrich, Product No. C2888, from Electrophorus electricus) and BChE (Lee Biosolutions, Product No. 130–10-1, from equine serum) was carried out as previously described by our lab[18]^,[19]. Briefly, compounds to be tested were prepared in sodium phosphate (dibasic) buffer (0.1 M) containing 10% DMSO and then diluted with phosphate buffer across the wells of a 96-well plate to reach desired concentrations (50 µL total well volume). AChE (50 µL, 400 U/L, in phosphate buffer) or BChE (50 µL, 400 U/L, in phosphate buffer) was added to the appropriate wells. After incubation, the enzymatic reaction was initiated with 100 µL of a 1:1 (v/v) solution of acetylthiocholine (ATC, 2 mM in phosphate buffer) or butyrylthiocholine (BTC, 2 mM in phosphate buffer) and 5,5′-dithiobis-(2-nitrobenzoic acid) (DTNB, 1 mM in phosphate buffer). […] IC50 values were calculated using GraphPad Prism 9.1.1.
(§2) The synthesis of the target molecules 4a-j and 5a-j was carried out in straightforward fashion by substitution of isatin or indole with iodomethane or 1-bromoalkanes in the presence of K2CO3 and DMF or NaOH and DMSO (Scheme 1). […] A DEPT135 experiment was run to differentiate this signal (negative) from the solvent (positive) (see supplementary data), as we have employed previosuly. The synthesised compounds were then evaluated as AChEI and BChEI using the established Ellman method. Results are reported as IC50 values in Table 1.

AChE [4] = target: T2, AChE (Electrophorus electricus, UniProt O42275); assay: AChE inhibition assay (Ellman method); type: biochemical
T2 construct: purchased Sigma-Aldrich C2888
T2 sequence (O42275 24-633): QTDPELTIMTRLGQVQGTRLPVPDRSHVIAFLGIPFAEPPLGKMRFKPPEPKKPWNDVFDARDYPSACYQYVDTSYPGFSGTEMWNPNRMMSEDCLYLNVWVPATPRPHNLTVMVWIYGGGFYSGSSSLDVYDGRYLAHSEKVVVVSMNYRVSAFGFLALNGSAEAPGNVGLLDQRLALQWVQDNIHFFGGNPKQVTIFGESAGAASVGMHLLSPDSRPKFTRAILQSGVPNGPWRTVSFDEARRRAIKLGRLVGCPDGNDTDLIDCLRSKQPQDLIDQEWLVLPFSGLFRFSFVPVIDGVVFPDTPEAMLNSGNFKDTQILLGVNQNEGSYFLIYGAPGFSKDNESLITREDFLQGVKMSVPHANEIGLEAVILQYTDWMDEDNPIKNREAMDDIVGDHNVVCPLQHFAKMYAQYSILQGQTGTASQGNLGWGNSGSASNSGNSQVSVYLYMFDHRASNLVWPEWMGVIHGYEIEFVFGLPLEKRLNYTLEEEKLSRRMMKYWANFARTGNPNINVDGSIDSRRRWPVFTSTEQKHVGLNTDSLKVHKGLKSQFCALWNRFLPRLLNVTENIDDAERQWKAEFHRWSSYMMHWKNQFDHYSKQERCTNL
Procedure: as §1, §2

BChE [5] = target: T1, BChE; assay: Kinetics assay of BChE inhibition (Lineweaver-Burk plot); type: biochemical, equine; settings: Lineweaver-Burk analysis with respect to butyrylthiocholine (BTC)
Procedure: (§3) Kinetics assays of 4i inhibition with AChE and BChE were also carried out as previously described[18]^,[19]. Briefly, varying concentrations of 4i were incubated with AChE and BChE before initiating the enzymatic reactions by addition of 100 µL of a 1:1 (v/v) solution of ATC or BTC (0.4 mM, 0.5 mM, 1 mM, or 2 mM in phosphate buffer) and DTNB (1 mM in phosphate buffer) to all wells. […] Rate vs concentration was fitted to a Lineweaver-Burk plot using GraphPad Prism 9.1.1.

AChE [6] = target: T2, AChE; assay: Kinetics assay of AChE inhibition (Lineweaver-Burk plot); type: biochemical; settings: Lineweaver-Burk analysis with respect to acetylthiocholine (ATC)
Procedure: as §3

AChE [7] = target: T2, AChE; settings: values previously determined; cited from earlier work
BChE [8] = target: T1, BChE; settings: read-out: BChE IC50; values previously determined; cited from earlier work
AChE [9] = target: T2, AChE; settings: previously reported; cited from earlier work
BChE [10] = target: T1, BChE; settings: previously reported; cited from earlier work
[11] = mean of three independent experiments ± SEM, > X = highest soluble concentration tested, read-out: BChE IC50
[12] = mean of three independent experiments ± SEM, > X = highest soluble concentration tested, read-out: AChE IC50

Row | SMILES | Selectivity (BChE [3]) | IC50 (BChE [3]; [11]) | IC50 (AChE [4]; [12]) | also measured
1 | CCCCCCCCCCCCN1C(=O)C(=O)c2ccccc21 [N-dodecyl isatin] |  |  |  | Ki (BChE [1]): > 100 µM; Ki (AChE [2]): > 100 µM
2 | CCCCCCCN1C(=O)C(=O)c2ccccc21 [Compound 4g, 1-Heptylindoline-2,3-dione] | 3.3 | 20.7 ± 3.3 µM | 67.8 ± 7.8 µM | 
3 | CCCN1C(=O)C(=O)c2ccccc21 [Compound 4c, 1-Propylindoline-2,3-dione] | 2.0 | 257 ± 8 µM | 519 ± 11 µM | 
4 | CCCCCCCCCCCCCCCCN1C(=O)C(=O)c2ccccc21 [N-hexadecyl isatin] |  |  |  | Ki (BChE [1]): > 100 µM; Ki (AChE [2]): > 100 µM
5 | CCCCCCCCCCn1ccc2ccccc21 [Compound 5j, 1-Decyl-1H-indole] | < 0.8 | > 62.5 µM | 48.6 ± 1.4 µM | 
6 | CCn1ccc2ccccc21 [Compound 5b, 1-Ethyl-1H-indole] | < 0.8 |  |  | IC50 (BChE [3]): > 125 µM; IC50 (AChE [4]): 101 ± 6 µM
7 | CCCCCCCCCN1C(=O)C(=O)c2ccccc21 [Compound 4i, 1-Nonylindoline-2,3-dione] | 22 and 21.8 | 3.77 ± 0.45 µM | 82.1 ± 8.1 µM | mode of inhibition of BChE (BChE [5]): mixed inhibition; mode of inhibition of AChE (AChE [6]): non-competitive inhibition
8 | CCCCCCn1ccc2ccccc21 [Compound 5f, 1-Hexyl-1H-indole] | < 0.6 | > 125 µM | 76.2 ± 1.6 µM | 
9 | CCCCCCN1C(=O)C(=O)c2ccccc21 [Compound 4f, 1-Hexylindoline-2,3-dione] | > 1.4 | 90.8 ± 2.3 µM | > 125 µM | 
10 | CCCCN1C(=O)C(=O)c2ccccc21 [Compound 4d, 1-Butylindoline-2,3-dione] | 7.3 | 73.7 ± 1.3 µM |  | IC50 (AChE [7]): 540 ± 23 µM
11 | O=C1Nc2ccccc2C1=O [isatin, indoline-2,3-dione] |  |  |  | IC50 (BChE [8]): > 1000 µM; IC50 (AChE [7]): > 1000 µM
12 | CCCCCn1ccc2ccccc21 [Compound 5e, 1-Pentyl-1H-indole] | < 0.8 | > 125 µM | 95 ± 5.9 µM | 
13 | C=C1SC(SCCCN2C(=O)C(=O)c3ccccc32)=NC1(C)C [Compound 3] |  |  |  | IC50 (AChE [7]): 18.2 µM; mode of inhibition of AChE (AChE [9]): non-competitive inhibition
14 | CCCCCCCn1ccc2ccccc21 [Compound 5g, 1-Heptyl-1H-indole] | < 0.6 | > 62.5 µM | 35 ± 10.5 µM | 
15 | CCCCCCCCCn1ccc2ccccc21 [Compound 5i, 1-Nonyl-1H-indole] | < 0.7 | > 62.5 µM | 44.6 ± 1.7 µM | loss of potency towards BChE compared to 4i (BChE [3]; inhibition assay, 5i vs 4i): > 17 fold
16 | CCCCn1ccc2ccccc21 [Compound 5d, 1-Butyl-1H-indole] |  | > 125 µM | > 125 µM | 
17 | O=C1C(=O)N(CCCCCN2C(=O)C(=O)c3ccccc32)c2ccccc21 [Compound 1] |  |  |  | mode of inhibition of BChE (BChE [10]): mixed inhibition
18 | CCCCCCCCCCN1C(=O)C(=O)c2ccccc21 [Compound 4j, 1-Decylindoline-2,3-dione] | 12.1 | 5.16 ± 0.66 µM | 62.2 ± 8.5 µM | 
19 | CCCn1ccc2ccccc21 [Compound 5c, 1-Propyl-1H-indole] | < 0.6 | > 125 µM | 78.6 ± 2.3 µM | 
20 | CCN1C(=O)C(=O)c2ccccc21 [Compound 4b, 1-Ethylindoline-2,3-dione] | 1.5 | 193 ± 8 µM | 297 ± 35 µM | 
21 | CN1C(=O)C(=O)c2ccccc21 [Compound 4a, 1-Methylindoline-2,3-dione] | < 0.6 |  |  | Ki (BChE [1]): > 100 µM; Ki (AChE [2]): > 100 µM; IC50 (BChE [3]): > 1000 µM; IC50 (AChE [4]): 647 ± 57 µM
22 | CCCCCN1C(=O)C(=O)c2ccccc21 [Compound 4e, 1-Pentylindoline-2,3-dione] | 2.4 | 83.8 ± 3.4 µM | 197 ± 51 µM | 
23 | CCCCCCCCN1C(=O)C(=O)c2ccccc21 [Compound 4h, 1-Octylindoline-2,3-dione] | > 7.0 | 17.9 ± 1.8 µM | > 125 µM | 
24 | CCCCCCCCn1ccc2ccccc21 [Compound 5h, 1-Octyl-1H-indole] | < 0.8 | > 62.5 µM | 49.5 ± 1.8 µM | 
25 | Cn1ccc2ccccc21 [Compound 5a, 1-Methyl-1H-indole] | < 0.7 |  |  | IC50 (BChE [3]): > 125 µM; IC50 (AChE [4]): 86.7 ± 4.5 µM
